Patent US20140187556A1, “ANTI-AMYLOID COMPOUNDS AND METHODS” (Treventis Corporation, priority 2011, published 2014)

Tests used:
[1] = biological target: T1, Aβ40 (Homo sapiens, UniProt P05067); assay: Thioflavin T (ThT) Aβ aggregation assay; assay type: biochemical; conditions: 20 μM Aβ40, 37 degrees C
T1 construct: pre-treated Aβ40 (40 μM in 20 mM Tris, pH 7.4)
Description: Aβ40 (1.0 mg) was pre-treated in a 1.5 mL microfuge tube with HFIP (1 mL) and sonicated for 20 min to disassemble any pre-formed Aβ aggregates. The HFIP was removed with a stream of argon and the Aβ dissolved in Tris base (5.8 mL, 20 mM, pH ˜10). The pH was adjusted to 7.4 with concentrated HCl (−10 μL) and the solution filtered using a syringe filter (0.2 μm) before being used.
The kinetic ThT assay for Aβ aggregation is similar to that of Chalifour et al (Chalifour et al, 2003, J. Biol. Chem. 278:34874-81). Briefly, pre-treated Aβ40 (40 μM in 20 mM Tris, pH 7.4), was diluted with an equal volume of 8 μM ThT in Tris (20 mM, pH 7.4, 300 mM NaCl). Aliquots of Aβ/ThT (200 μL) were added to wells of a black polystyrene 96-well plate, followed by 2 μL of a compound in DMSO (variable concentration), or DMSO alone (controls). Incubations were performed in triplicate and were taken to contain 20 μM Aβ, various concentration of compound in 20 mM Tris, pH 7.4, 150 mM NaCl, 1% DMSO. Plates were covered with clear polystyrene lids and incubated at 37 degrees C. in a Tecan Genios microplate reader. Fluorescence readings (λex=450 nm, λem=480 nm) were taken every 15 min., after first shaking at high intensity for 15 s and allowing to settle for 10 s before each reading. Active compounds attenuated the increase in fluorescence over time that occurred in controls.

[2] = Metabolic stability in mouse liver microsomes; assay type: in vitro ADME; conditions: 1 μM compound, 0.5 mg/mL microsomal protein, 1 mM NADPH
Description: This assay is used to determine the percent remaining and intrinsic clearance of a test compound incubated with pooled mouse liver microsomes in the presence of NADPH. Further details on this method may be found in Jeffrey P, et al., Utility of metabolic stability screening: comparison of in vitro and in vivo clearance. enobiotica. 2001 August-September; 31(8-9):591-8 and Lin J H, et al., Role of pharmacokinetics and metabolism in drug discovery and development. Pharmacol Rev. 1997; 49(4):403-49; each of which is hereby incorporated by reference. Test compound was formulated in 300 μL of DMSO at 10 mM and was diluted to 1 μM with final concentration of organic solvent <0.25% for the experiment. Pooled liver microsomes were prepared from male mice, with 1 mM NADPH. Test compound was incubated at 37 degrees Celsius in buffer containing 0.5 mg/mL microsomal protein; the reaction was initiated by adding cofactors and sampled at 0, 10, 20, 30, and 60 minutes. A positive control (5 μM testosterone) was incubated and initiated in parallel for quality control. Samples were analyzed using an LTQ-Orbitrap XL mass spectrometer; HRMS was used to determine the peak area response ratio (peak area corresponding to test compound or control divided by that of an analytical internal standard) without running a standard curve.
Results were reported for selected compounds in the table of Example 1, as % test compound remaining after 60 minutes. Compounds which have less than about 5% remaining are not considered to be metabolically stable in mouse liver microsomes, while compounds with more than about 5% remaining are considered to be metabolically stable in mouse liver microsomes.

[3] = Blood-brain barrier penetration potential using MDR1-MDCK cell monolayers; assay type: in vitro ADME; conditions: dog; for Papp A→B at 120 min, 5 µM: MDCK-MDR1, apical dosing, pH 7.4, read-out: Papp A-B × 10^−6 cm/s; for Papp B→A at 120 min, 5 µM: MDCK-MDR1, basolateral dosing, pH 7.4, read-out: Papp B-A × 10^−6 cm/s; for efflux ratio at 120 min, 5 µM: MDCK-MDR1, pH 7.4, read-out: Efflux ratio (Papp B-A)/(Papp A-B)
Description: This assay is used to determine the blood-brain barrier (BBB) penetration potential of a test compound using MDR1-MDCK cell monolayers. Further details on this method may be found in Taub M E, et al., Functional assessment of multiple Pglycoprotein (P-gp) probe substrates: Influence of cell line and modulator concentration on P-gp activity. Drug Metab Dispos. 2005 November; 33(11): 1679-87 and Wang Q, et al., Evaluation of the MDR-MDCK cell line as a permeability screen for the blood-brain barrier. Int J. Pharm. 2005 Jan. 20; 288(2):349-59; each of which is hereby incorporated by reference. Test compound was formulated in 300 μL of DMSO at 10 mM and diluted to 5 μM in HBSSg with maximum DMSO concentration not greater than 1%. Confluent monolayers of MDR1-MDCK cells, 7 to 11 days old, were used. A receiver well, having apical and basolateral sides at pH 7.4, was used with 1% BSA in modified Hanks buffer (HBSSg). Two monolayers were dosed with test compound in each direction (N=2). Apical side dosing was used for A-B assessment and basolateral side was used for B-A assessment; taken together, this information provides a bidirectional permeability potential. Apical and basolateral sides were sampled at 120 minutes and concentrations of test compound were determined using an LC-MS/MS method with a minimum 4 point calibration curve. Apparent permeability (Papp) in both directions (A-B and B-A) was calculated, as was the efflux ratio (Papp B-A)/(Papp A-B).

[4] = biological target: Tau441 (Homo sapiens, UniProt P10636); assay: Thioflavin S (ThS) tau aggregation assay; assay type: biochemical; conditions: FIG. 1; for inhibition at 20 µM: 20 μM compound; for IC50: read-out: tau aggregation IC50 (suggested by inhibition at 20 μM)
Description: Analogous to the method of Example 1, the ability of compounds to inhibit the aggregation of tau was performed by substituting […] with tau and Thioflavin T with Thioflavin S.

T1 sequence (P05067 672-711 limits assumed): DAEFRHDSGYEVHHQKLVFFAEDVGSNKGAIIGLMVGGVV
Tau441, sequence (P10636 1-441 isoform P10636-8): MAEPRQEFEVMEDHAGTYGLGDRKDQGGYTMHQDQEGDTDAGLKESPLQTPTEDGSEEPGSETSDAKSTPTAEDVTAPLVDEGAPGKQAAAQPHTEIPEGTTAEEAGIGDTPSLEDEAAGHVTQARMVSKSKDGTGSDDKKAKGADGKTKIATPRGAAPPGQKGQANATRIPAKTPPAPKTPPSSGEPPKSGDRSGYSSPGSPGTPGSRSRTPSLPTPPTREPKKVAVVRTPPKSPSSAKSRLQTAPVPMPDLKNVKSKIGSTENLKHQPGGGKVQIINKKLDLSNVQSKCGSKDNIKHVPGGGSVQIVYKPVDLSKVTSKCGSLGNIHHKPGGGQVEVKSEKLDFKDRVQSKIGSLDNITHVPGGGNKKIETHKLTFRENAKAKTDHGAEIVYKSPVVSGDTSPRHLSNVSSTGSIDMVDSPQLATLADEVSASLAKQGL

SMILES	IC50 [1]	Stability in mouse liver microsomes (% test compound remaining after 60 min) [2]	Papp A→B at 120 min, 5 µM [3]	Papp B→A at 120 min, 5 µM [3]	efflux ratio at 120 min, 5 µM [3]	inhibition at 20 µM [4]	IC50 [4]
O=C(c1cccc(-c2ccc([N+](=O)[O-])c(NCc3ccccc3)c2)c1)N1CCCCC1 [TRV 1111, (3′-(benzyl amino)-4′-nitrobiphenyl-3-yl)(piperidin-1-yl)methanone]	0.33 ± 0.44 µM	<1.0%					
CC(C)N(C(=O)c1cccc(-c2ccc([N+](=O)[O-])c(NCc3ccccc3)c2)c1)C(C)C [TRV 1112, 3′-(benzylamino)-N,N-diisopropyl-4′-nitrobiphenyl-3-carboxamide]	1.41 ± 1.11 µM	<1.0%					
CCN(CC)C(=O)c1cccc(-c2ccc([N+](=O)[O-])c(NCc3ccccc3)c2)c1 [TRV 1110, 3′-(benzylamino)-N,N-diethyl-4′-nitrobiphenyl-3-carboxamide]	0.7 ± 0.9 µM	<1.0%					
CN1CCN(C(=O)c2cccc(-c3ccc([N+](=O)[O-])c(NCc4ccccc4)c3)c2)CC1 [TRV 1115, (3′-(benzyl amino)-4′-nitrobiphenyl-3-yl)(4-methylpiperazin-1-yl)methanone]	2.67 ± 0.1 µM	<1.0%					
CN(C)C(=O)c1cccc(-c2ccc([N+](=O)[O-])c(NCc3ccccc3)c2)c1 [TRV 1102, 3′-(benzylamino)-N,N-dimethyl-4′-nitrobiphenyl-3-carboxamide]	4.11 ± 1.2 µM	<1.0%					
O=C(c1ccccc1)N1CCN(c2ccc(F)c(Nc3ccccc3)c2)CC1 [TRV 1095, (4-(4-fluoro-3-(phenylamino)phenyl)piperazin-1-yl)(phenyl)methanone]	15.9 ± 7.8 µM	<1.0%				~20%	> 20 µM
O=C(c1cccc(-c2ccc([N+](=O)[O-])c(NCc3ccccc3)c2)c1)N1CCCC1 [TRV 1117, (3′-(benzylamino)-4′-nitrobiphenyl-3-yl)(pyrrolidin-1-yl)methanone]	2.94 ± 1.64 µM	<1.0%					
NS(=O)(=O)c1cccc(-c2ccc([N+](=O)[O-])c(NCc3ccccc3)c2)c1 [TRV 1122, 3′-(benzylamino)-4′-nitro-[1,1′-biphenyl]-3-sulfonamide]	14.1 ± 3.07 µM	1.5%	27.5 ×10⁻⁶ cm/s	52.5 ×10⁻⁶ cm/s	1.9		
NS(=O)(=O)c1ccccc1-c1ccc([N+](=O)[O-])c(NCc2ccccc2)c1 [TRV 1121, 3′-(benzylamino)-4′-nitro-[1,1′-biphenyl]-2-sulfonamide]	24.6 ± 6.83 µM	<1.0%					

Next, values leading:

IC50 [1]	Stability in mouse liver microsomes (% test compound remaining after 60 min) [2]	Papp A→B at 120 min, 5 µM [3]	Papp B→A at 120 min, 5 µM [3]	efflux ratio at 120 min, 5 µM [3]	inhibition at 20 µM [4]	IC50 [4]	SMILES
3.54 ± 0.46 µM	<1.0%						O=[N+]([O-])c1ccc(-c2cccc(CO)c2)cc1NCc1ccccc1 [TRV 1147]
1.1 ± 0.33 µM	41%	34.1 ×10⁻⁶ cm/s	47.8 ×10⁻⁶ cm/s	1.4			O=[N+]([O-])c1ccc(-c2ccc(-c3nn[nH]n3)cc2)cc1NCc1ccccc1 [TRV 1126, N-benzyl-4-nitro-4′-(2H-tetrazol-5-yl)-[1,1′-biphenyl]-3-amine]
~10 µM	<1.0%						O=C(c1ccccc1)N1CCN(c2ccc([N+](=O)[O-])c(N3CCCC3)c2)CC1 [TRV 1141, (4-(4-nitro-3-(pyrrolidin-1-yl)phenyl)piperazin-1-yl)(phenyl)methanone]
6.49 ± 0.21 µM	<1.0%						CC(O)c1cccc(-c2ccc([N+](=O)[O-])c(NCc3ccccc3)c2)c1 (stereo not drawn) [TRV 1129, 1-(3′-(benzylamino)-4′-nitrobiphenyl-3-yl)ethanol]
~10 µM	1.7%						O=C(c1ccccc1)N1CCN(c2ccc([N+](=O)[O-])c(NC3CC3)c2)CC1 [TRV 1142, (4-(3-(cyclopropylamino)-4-nitrophenyl)piperazin-1-yl)(phenyl)methanone]
42.02 ± 0.12 µM					~20%	> 20 µM	O=C(c1ccccc1)N1CCN(c2ccc(C(F)(F)F)c(N3CCCC3)c2)CC1 [TRV 1158, phenyl(4-(3-(pyrrolidin-1-yl)-4-(trifluoromethyl)phenyl)piperazin-1-yl)methanone]
